Measured values published in ChEMBL document CHEMBL5543142, “Discovery of YFJ-36: Design, Synthesis, and Antibacterial Activities of Catechol-Conjugated β-Lactams against Gram-Negative Bacteria” (J Med Chem, 2024).
In brackets after ≈: the same amount, converted by molar mass.

Key:
Pseudomonas aeruginosa [1] = assay: Antibacterial activity against Pseudomonas aeruginosa ATCC 27853 assessed as inhibition of bacterial growth incubated for 18 to 20 hrs by two fold serial dilution assay; format: functional; details: time 18-20 hrs
Escherichia coli [2] = assay: Antibacterial activity against ESBL-producing multidrug-resistant Escherichia coli clinical isolate 14-1 assessed as inhibition of bacterial growth incubated for 18 to 20 hrs by two fold serial dilution assay; format: functional; details: time 18-20 hrs
Escherichia coli [3] = assay: Antibacterial activity against ESBL-producing multidrug-resistant Escherichia coli clinical isolate 14-2 assessed as inhibition of bacterial growth incubated for 18 to 20 hrs by two fold serial dilution assay; format: functional; details: time 18-20 hrs
Escherichia coli [4] = assay: Antibacterial activity against ESBL-producing multidrug-resistant Escherichia coli clinical isolate 14-4 assessed as inhibition of bacterial growth incubated for 18 to 20 hrs by two fold serial dilution assay; format: functional; details: time 18-20 hrs
Acinetobacter baumannii [5] = assay: Antibacterial activity against OXA-23 producing multidrug-resistant Acinetobacter baumannii clinical isolate 15-1 assessed as inhibition of bacterial growth incubated for 18 to 20 hrs by two fold serial dilution assay; format: functional; details: time 18-20 hrs
Acinetobacter baumannii [6] = assay: Antibacterial activity against OXA-23 producing multidrug-resistant Acinetobacter baumannii clinical isolate 15-2 assessed as inhibition of bacterial growth incubated for 18 to 20 hrs by two fold serial dilution assay; format: functional; details: time 18-20 hrs
Acinetobacter baumannii [7] = assay: Antibacterial activity against OXA-23 producing multidrug-resistant Acinetobacter baumannii clinical isolate 15-3 assessed as inhibition of bacterial growth incubated for 18 to 20 hrs by two fold serial dilution assay; format: functional; details: time 18-20 hrs
Acinetobacter baumannii [8] = assay: Antibacterial activity against OXA-23 producing multidrug-resistant Acinetobacter baumannii clinical isolate 15-4 assessed as inhibition of bacterial growth incubated for 18 to 20 hrs by two fold serial dilution assay; format: functional; details: time 18-20 hrs
Acinetobacter baumannii [9] = assay: Antibacterial activity against OXA-23 producing multidrug-resistant Acinetobacter baumannii clinical isolate 15-5 assessed as inhibition of bacterial growth incubated for 18 to 20 hrs by two fold serial dilution assay; format: functional; details: time 18-20 hrs
Klebsiella pneumoniae [10] = assay: Antibacterial activity against KPC-2 producing multidrug-resistant Klebsiella pneumoniae clinical isolate 15-1 assessed as inhibition of bacterial growth incubated for 18 to 20 hrs by two fold serial dilution assay; format: functional; details: time 18-20 hrs
Klebsiella pneumoniae [11] = assay: Antibacterial activity against KPC-2 producing multidrug-resistant Klebsiella pneumoniae clinical isolate 15-2 assessed as inhibition of bacterial growth incubated for 18 to 20 hrs by two fold serial dilution assay; format: functional; details: time 18-20 hrs
Klebsiella pneumoniae [12] = assay: Antibacterial activity against KPC-2 producing multidrug-resistant Klebsiella pneumoniae clinical isolate 15-5 assessed as inhibition of bacterial growth incubated for 18 to 20 hrs by two fold serial dilution assay; format: functional; details: time 18-20 hrs
Pseudomonas aeruginosa [13] = assay: Antibacterial activity against IMP-4 producing multidrug-resistant Pseudomonas aeruginosa clinical isolate 15-1 assessed as inhibition of bacterial growth incubated for 18 to 20 hrs by two fold serial dilution assay; format: functional; details: time 18-20 hrs
Pseudomonas aeruginosa [14] = assay: Antibacterial activity against IMP-4 producing multidrug-resistant Pseudomonas aeruginosa clinical isolate 15-4 assessed as inhibition of bacterial growth incubated for 18 to 20 hrs by two fold serial dilution assay; format: functional; details: time 18-20 hrs
Pseudomonas aeruginosa [15] = assay: Antibacterial activity against IMP-4 producing multidrug-resistant Pseudomonas aeruginosa clinical isolate 15-5 assessed as inhibition of bacterial growth incubated for 18 to 20 hrs by two fold serial dilution assay; format: functional; details: time 18-20 hrs
Escherichia coli [16] = assay: Antibacterial activity against Escherichia coli ATCC35218 assessed as inhibition of bacterial growth incubated for 18 to 20 hrs by two fold serial dilution assay; format: functional; details: time 18-20 hrs
Pseudomonas aeruginosa [17] = assay: Antibacterial activity against IMP-4 producing multidrug-resistant Pseudomonas aeruginosa clinical isolate 17-13 assessed as inhibition of bacterial growth incubated for 18 to 20 hrs by two fold serial dilution assay; format: functional; details: time 18-20 hrs
Pseudomonas aeruginosa [18] = assay: Antibacterial activity against IMP-4 producing multidrug-resistant Pseudomonas aeruginosa clinical isolate 17-1 assessed as inhibition of bacterial growth incubated for 18 to 20 hrs by two fold serial dilution assay; format: functional; details: time 18-20 hrs
Pseudomonas aeruginosa [19] = assay: Antibacterial activity against IMP-4 producing multidrug-resistant Pseudomonas aeruginosa clinical isolate 19-17 assessed as inhibition of bacterial growth incubated for 18 to 20 hrs by two fold serial dilution assay; format: functional; details: time 18-20 hrs
Acinetobacter baumannii [20] = assay: Antibacterial activity against OXA-23 producing multidrug-resistant Acinetobacter baumannii clinical isolate 17-2 assessed as inhibition of bacterial growth incubated for 18 to 20 hrs by two fold serial dilution assay; format: functional; details: time 18-20 hrs
Acinetobacter baumannii [21] = assay: Antibacterial activity against OXA-23 producing multidrug-resistant Acinetobacter baumannii clinical isolate 17-3 assessed as inhibition of bacterial growth incubated for 18 to 20 hrs by two fold serial dilution assay; format: functional; details: time 18-20 hrs
Pseudomonas aeruginosa [22] = assay: Antibacterial activity against IMP-4 producing multidrug-resistant Pseudomonas aeruginosa clinical isolate 19-5 assessed as inhibition of bacterial growth incubated for 18 to 20 hrs by two fold serial dilution assay; format: functional; details: time 18-20 hrs
Pseudomonas aeruginosa [23] = assay: Antibacterial activity against IMP-4 producing multidrug-resistant Pseudomonas aeruginosa clinical isolate 19-1 assessed as inhibition of bacterial growth incubated for 18 to 20 hrs by two fold serial dilution assay; format: functional; details: time 18-20 hrs
Acinetobacter baumannii [24] = assay: Antibacterial activity against OXA-23 producing multidrug-resistant Acinetobacter baumannii clinical isolate 17-5 assessed as inhibition of bacterial growth incubated for 18 to 20 hrs by two fold serial dilution assay; format: functional; details: time 18-20 hrs
Acinetobacter baumannii [25] = assay: Antibacterial activity against OXA-23 producing multidrug-resistant Acinetobacter baumannii clinical isolate 17-6 assessed as inhibition of bacterial growth incubated for 18 to 20 hrs by two fold serial dilution assay; format: functional; details: time 18-20 hrs
Acinetobacter baumannii [26] = assay: Antibacterial activity against OXA-23 producing multidrug-resistant Acinetobacter baumannii clinical isolate 17-7 assessed as inhibition of bacterial growth incubated for 18 to 20 hrs by two fold serial dilution assay; format: functional; details: time 18-20 hrs
Acinetobacter baumannii [27] = assay: Antibacterial activity against OXA-23 producing multidrug-resistant Acinetobacter baumannii clinical isolate 17-8 assessed as inhibition of bacterial growth incubated for 18 to 20 hrs by two fold serial dilution assay; format: functional; details: time 18-20 hrs
Klebsiella pneumoniae [28] = assay: Antibacterial activity against KPC-2 producing multidrug-resistant Klebsiella pneumoniae clinical isolate 15-3 assessed as inhibition of bacterial growth incubated for 18 to 20 hrs by two fold serial dilution assay; format: functional; details: time 18-20 hrs
Escherichia coli [29] = assay: Antibacterial activity against Escherichia coli NCTC-13353 assessed as inhibition of bacterial growth incubated for 18 to 20 hrs in presence of CAMHB medium by two fold serial dilution assay; format: functional; details: time 18-20 hrs
Escherichia coli [30] = assay: Antibacterial activity against Escherichia coli ATCC-35218 assessed as inhibition of bacterial growth incubated for 18 to 20 hrs in presence of CAMHB medium by two fold serial dilution assay; format: functional; details: time 18-20 hrs
Klebsiella pneumoniae [31] = assay: Antibacterial activity against Klebsiella pneumoniae ATCC BAA-1898 assessed as inhibition of bacterial growth incubated for 18 to 20 hrs in presence of CAMHB medium by two fold serial dilution assay; format: functional; details: time 18-20 hrs
Escherichia coli [32] = assay: Antibacterial activity against Escherichia coli NCTC-13353 assessed as inhibition of bacterial growth incubated for 18 to 20 hrs in presence of iron-depleted CAMHB medium by two fold serial dilution assay; format: functional; details: time 18-20 hrs
Escherichia coli [33] = assay: Antibacterial activity against Escherichia coli ATCC-35218 assessed as inhibition of bacterial growth incubated for 18 to 20 hrs in presence of iron-depleted CAMHB medium by two fold serial dilution assay; format: functional; details: time 18-20 hrs
Klebsiella pneumoniae [34] = assay: Antibacterial activity against Klebsiella pneumoniae ATCC BAA-1898 assessed as inhibition of bacterial growth incubated for 18 to 20 hrs in presence of iron-depleted CAMHB medium by two fold serial dilution assay; format: functional; details: time 18-20 hrs
Escherichia coli [35] = assay: Antibacterial activity against Escherichia coli ATCC-35218 infected in ICR mouse assessed as inhibition of bacterial growth at iv after 1 and 5 hour of post-infection measured after 7 days; format: functional; details: ATCC-35218, 168 h, time 7 day
Acinetobacter baumannii [36] = assay: Antibacterial activity against multidrug-resistant Acinetobacter baumannii BM-2023-D2-010 infected in ICR mouse assessed as inhibition of bacterial growth at iv after 1 and 5 hour of post-infection measured after 7 days; format: functional; details: BM-2023-D2-010, 168 h, time 7 day
[37] = Plasma protein binding in mouse incubated for 35 mins by LC-MS/MS analysis; format: ADME, cell-free; details: read-out: PPB (converted)
[38] = target: Voltage-gated inwardly rectifying potassium channel KCNH2 (Homo sapiens, UniProt Q12809); assay: Inhibition of hERG by whole cell Qpatch assay; format: toxicity
Chain of Voltage-gated inwardly rectifying potassium channel KCNH2 (Q12809 whole entry): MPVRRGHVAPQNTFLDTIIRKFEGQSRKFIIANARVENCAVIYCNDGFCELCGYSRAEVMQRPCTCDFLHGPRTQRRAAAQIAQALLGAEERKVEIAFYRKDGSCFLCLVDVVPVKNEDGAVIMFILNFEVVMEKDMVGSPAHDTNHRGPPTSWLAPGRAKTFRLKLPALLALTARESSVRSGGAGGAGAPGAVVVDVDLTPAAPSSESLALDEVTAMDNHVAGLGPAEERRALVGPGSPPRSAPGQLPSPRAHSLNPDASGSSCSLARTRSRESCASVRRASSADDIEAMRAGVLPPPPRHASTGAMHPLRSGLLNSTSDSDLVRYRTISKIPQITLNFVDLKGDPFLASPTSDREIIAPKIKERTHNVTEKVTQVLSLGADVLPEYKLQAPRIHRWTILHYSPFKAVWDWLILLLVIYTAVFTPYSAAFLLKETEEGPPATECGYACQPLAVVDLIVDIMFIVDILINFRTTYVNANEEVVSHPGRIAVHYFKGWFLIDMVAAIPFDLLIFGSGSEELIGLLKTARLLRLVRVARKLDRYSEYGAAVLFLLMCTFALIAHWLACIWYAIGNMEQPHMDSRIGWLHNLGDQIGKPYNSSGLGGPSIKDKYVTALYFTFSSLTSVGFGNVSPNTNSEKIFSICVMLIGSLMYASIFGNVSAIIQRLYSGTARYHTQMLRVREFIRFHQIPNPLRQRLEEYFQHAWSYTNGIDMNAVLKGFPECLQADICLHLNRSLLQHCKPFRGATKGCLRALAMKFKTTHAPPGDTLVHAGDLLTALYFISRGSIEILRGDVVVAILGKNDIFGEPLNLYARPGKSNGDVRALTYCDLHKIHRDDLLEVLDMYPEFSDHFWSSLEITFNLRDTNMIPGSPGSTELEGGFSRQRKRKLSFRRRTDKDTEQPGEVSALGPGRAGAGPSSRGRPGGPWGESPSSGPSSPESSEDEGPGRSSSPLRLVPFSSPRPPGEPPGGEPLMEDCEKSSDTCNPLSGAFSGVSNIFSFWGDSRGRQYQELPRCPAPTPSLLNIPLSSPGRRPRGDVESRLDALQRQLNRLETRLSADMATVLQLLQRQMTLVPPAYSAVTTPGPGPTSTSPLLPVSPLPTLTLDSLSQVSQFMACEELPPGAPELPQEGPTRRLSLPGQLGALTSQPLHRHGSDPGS

Acinetobacter baumannii [39] = assay: Antibacterial activity against multidrug-resistant Acinetobacter baumannii BM-2023-D2-010 infected in ICR mouse assessed as inhibition of bacterial growth by measuring its effective dose at iv after 1 and 5 hour of post-infection measured after 7 days; format: functional; details: BM-2023-D2-010, 168 h, time 7 day
Acinetobacter baumannii [40] = assay: Antibacterial activity against multidrug-resistant Acinetobacter baumannii BM-2023-D2-010 infected in ICR mouse assessed as survival rate at 40 mg/kg,iv after 1 and 5 hour of post-infection measured after 7 days relative to control; format: functional; details: time 7 day

Row | SMILES | MIC (Pseudomonas aeruginosa [1]) [µg/mL] | MIC (Escherichia coli [2]) [µg/mL] | MIC (Escherichia coli [3]) [µg/mL] | MIC (Escherichia coli [4]) [µg/mL] | MIC (Acinetobacter baumannii [7]) [µg/mL] | MIC (Acinetobacter baumannii [8]) [µg/mL] | MIC (Acinetobacter baumannii [9]) [µg/mL] | MIC (Klebsiella pneumoniae [10]) [µg/mL] | MIC (Klebsiella pneumoniae [11]) [µg/mL] | MIC (Klebsiella pneumoniae [12]) [µg/mL] | MIC (Pseudomonas aeruginosa [13]) [µg/mL] | MIC (Pseudomonas aeruginosa [15]) [µg/mL] | MIC (Escherichia coli [16]) [µg/mL] | MIC (Pseudomonas aeruginosa [17]) [µg/mL] | MIC (Pseudomonas aeruginosa [18]) [µg/mL] | MIC (Pseudomonas aeruginosa [19]) [µg/mL] | MIC (Acinetobacter baumannii [20]) [µg/mL] | MIC (Pseudomonas aeruginosa [22]) [µg/mL] | MIC (Pseudomonas aeruginosa [23]) [µg/mL] | MIC (Acinetobacter baumannii [24]) [µg/mL] | also measured
1 | CC(C)(O/N=C(\C(=O)N[C@@H]1C(=O)N2C(C(=O)[O-])=C(C[N+]3(CCNC(=O)c4ccc(O)c(O)c4Cl)CCCC3)CS[C@H]12)c1csc(N)n1)C(=O)O [CEFIDEROCOL] | 2 (≈ 2.66 µM) | 0.125 (≈ 0.166 µM) | 1 (≈ 1.33 µM) | 2 (≈ 2.66 µM) | 4 (≈ 5.32 µM) | 4 (≈ 5.32 µM) | 2 (≈ 2.66 µM) | 8 (≈ 10.6 µM) | 4 (≈ 5.32 µM) | 8 (≈ 10.6 µM) | 4 (≈ 5.32 µM) | 2 (≈ 2.66 µM) | 0.06 (≈ 0.0798 µM) | 1 (≈ 1.33 µM) | 8 (≈ 10.6 µM) | 0.5 (≈ 0.665 µM) | 1 (≈ 1.33 µM) | 1 (≈ 1.33 µM) | 2 (≈ 2.66 µM) | 2 (≈ 2.66 µM) | MIC (Acinetobacter baumannii [5]): 8 µg/mL (≈ 10.6 µM); MIC (Acinetobacter baumannii [6]): 2 µg/mL (≈ 2.66 µM); MIC (Pseudomonas aeruginosa [14]): 2 µg/mL (≈ 2.66 µM); MIC (Acinetobacter baumannii [21]): 1 µg/mL (≈ 1.33 µM); MIC (Acinetobacter baumannii [25]): 1 µg/mL (≈ 1.33 µM); MIC (Acinetobacter baumannii [26]): 2 µg/mL (≈ 2.66 µM); MIC (Acinetobacter baumannii [27]): 1 µg/mL (≈ 1.33 µM); MIC (Klebsiella pneumoniae [28]): 8 µg/mL (≈ 10.6 µM); MIC (Escherichia coli [29]): 0.5 µg/mL; MIC (Escherichia coli [30]): 1 µg/mL; MIC (Klebsiella pneumoniae [31]): 8 µg/mL; MIC (Escherichia coli [32]): 0.5 µg/mL; MIC (Escherichia coli [33]): 0.06 µg/mL; MIC (Klebsiella pneumoniae [34]): 2 µg/mL; MIC (Escherichia coli [35]): 0.12 µg/mL (≈ 0.16 µM); MIC (Acinetobacter baumannii [36]): 0.25 µg/mL (≈ 0.332 µM); fraction unbound at 35 min [37]: 0.801; IC50 [38]: 42 nM; ED50 (Acinetobacter baumannii [39]): 7 mg/kg
2 | C[C@@H](O)[C@H]1C(=O)N2C(C(=O)O)=C(S[C@@H]3CN[C@H](C(=O)N(C)C)C3)[C@H](C)[C@H]12 [MEROPENEM] | 1 (≈ 2.61 µM) | 0.125 (≈ 0.326 µM) | 2 (≈ 5.22 µM) | 4 (≈ 10.4 µM) | 32 (≈ 83.4 µM) | 32 (≈ 83.4 µM) | 32 (≈ 83.4 µM) | > 64 | > 64 | > 64 | 32 (≈ 83.4 µM) | 16 (≈ 41.7 µM) | 0.06 (≈ 0.156 µM) | 16 (≈ 41.7 µM) | 4 (≈ 10.4 µM) | 32 (≈ 83.4 µM) | > 64 | 16 (≈ 41.7 µM) | 0.5 (≈ 1.3 µM) | > 64 | MIC (Acinetobacter baumannii [25]): > 64 µg/mL; MIC (Acinetobacter baumannii [26]): > 64 µg/mL; MIC (Acinetobacter baumannii [27]): > 64 µg/mL; MIC (Klebsiella pneumoniae [28]): > 64 µg/mL; MIC (Escherichia coli [29]): 32 µg/mL; MIC (Escherichia coli [35]): ≤ 0.03 µg/mL; MIC (Acinetobacter baumannii [36]): > 64 µg/mL; Activity (Acinetobacter baumannii [40]): 0%
